Consider 15 molecules from US9464106B2, “Oligonucleotides useful for detecting and analyzing nucleic acids of interest” (Exiqon A/S, priority 2002, dated 2016).

Data set [1] deals with 3′-ACGACCAC-5′ / 3′-ACGGCCAC-5′. Description: Tm of LNA:DNA and DNA:DNA 8-mer duplexes, perfect match and single mismatch. Particulars: for ΔTm: perfect match minus single mismatch; for Tm of LNA:DNA Duplexes, Perfect match: target 3′-ACGACCAC-5′; for Tm of LNA:DNA Duplexes, Single mismatch: target 3′-ACGGCCAC-5′. The data set is classed as binding. The text has this:
It is often difficult to design probes and primers with the same range of melting temperature due to the variance in A/T and G/C content of the probing sites. Highly A/T rich regions typically give lower Tm values. Furthermore, if single mismatches are to be resolved, G/T mismatches are known to contribute little to ΔTm. As discussed above, the use of LNA is a desirable way to solve problems related to multiplex use of primers and probes. LNA offers the possibility to adjust Tm and increase the ΔTm at the same time. LNA increases Tm with 4-8° C./substitution and increases ΔTm in many cases (Table 9).

Data set [2] deals with C. elegans genes relevant for general stress response and metabolism of toxic compounds. Nature of the data set: Expression profiling on C. elegans LNA tox oligoarray, beta-naphthoflavone and primaquine. Conditions: cRNA target; 24 hours. The class given is in vivo, Caenorhabditis elegans. The procedure: For all cultures the sample is divided into two, and one half of the sample is used as the control, the other as the treated sample. Worm samples are harvested and sucrose cleaned by standard methods. For heat shock treatment: the heat shock sample is added to S-media preheated to 33° C. in a 1 L flask suspended in a water bath at 33° C., the other sample is added to a 1 L flask with S-media at 25° C. Both samples are shaken at approximately 100 rpm. for an hour. For β-naphthoflavone and primaquine treatment: 0.5 mL of 5 mg/mL β-naphthoflavone in DMSO or 0.5 mL of 20 mg/mL primaquine in DMSO were added to each 500 mL volume of S-media culture after 28 hours of growth from L1. At the same time 0.5 mL of DMSO was added to the control. Incubation was for 24 hours. Samples are then harvested by centrifugation at 3000×g suspended in RNALater™ (Ambion) and immediately frozen in liquid nitrogen.
First and second strand cDNA syntheses were made using the MessageAmp™ aRNA Kit (Ambion) according to suppliers' instructions. Five microgram of C. elegans total RNA was used as template for cDNA syntheses. Syntheses of fluorescent cRNA were made according to the MessageAmp™ aRNA Kit (Ambion) protocol with minor modifications. Cy3™-UTP or Cy5™-UTP (6 μl of a 5 mM solution Amersham Biosciences, USA) replaced biotin-CTP. The final concentration of ATP, CTP, and GTP was 7.5 mM whereas the concentration of UTP was reduced to 4.9 mM.
The arrays were hybridized overnight using the following protocol. The Cy3™ and Cy5™-labelled cDNA or cRNA samples were combined in one tube followed by addition of 3 μL 20×SSC (3×SSC final), 0.5 μL 1 M HEPES, pH 7.0 (25 mM final), 25 μg yeast tRNA (1.25 μg/μL final), 0.6 μL 10% SDS (0.3% final), and DEPC-treated water to 20 μL final volume. The labelled cDNA target sample was filtered in a Millipore 0.22 micron spin column according to the manufacturer's instructions (Millipore, USA), and the probe was denatured by incubating the reaction at 100° C. for 2 min. The sample was cooled at 20-25° C. for 5 min. by spinning at max speed in a microcentrifuge. A LifterSlip (Erie Scientific Company, USA) was carefully placed on top of the microarray spotted on Immobilizer™ MicroArray Slide and the hybridization mixture was applied to the array from the side. An aliquot of 30 μL of 3×SSC was added to both ends of the hybridization chamber, and the Immobilizer™ MicroArray Slide was placed in the hybridization chamber. The chamber was sealed watertight and incubated at 65° C. for 16-18 hours submerged in a water bath. After hybridisation, the slide was removed carefully from the hybridization chamber and washed using the following protocol. The Lifterslip coverslip was washed off in 2×SSC, pH 7.0 containing 0.1% SDS at room temperature for 1 min., followed by washing of the microarrays subsequently in 1.0×SSC, pH 7.0 at room temperature for 1 min, and then in 0.2×SSC, pH 7.0 at room temperature for 1 min. Finally the slides were washed for 5 seconds in 0.05×SSC, pH 7.0. The slides were then dried by centrifugation in a swinging bucket rotor at approximately 200 G for 2 min. The slide is now ready for scanning.
Following washing and drying, the slides were scanned using a ScanArray 4000XL scanner (Perkin-Elmer Life Sciences, USA), and the array data were processed using the GenePix™ Pro 4.0 software package (Axon, USA). The data in each image was normalized so that the ratio of means of all of the features is equal to 1.

Another data set has as its system human satellite-2 repeat. Nature of the data set: FISH on metaphase chromosomes with satellite-2 LNA/DNA mixmers. The class given is binding. Conditions: for FISH signals on chromosomes: 6.4 pmoles Cy3 labeled probe, 30 minutes at 37° C., simultaneous denaturation at 75° C. for 5 minutes; for FISH signals without a denaturation step: overnight hybridization. The procedure: Chromosome preparations were made by standard methods from peripheral lymphocyte cultures of normal males. Slides were prepared 1-4 days prior to an experiment and treated with RNAse (10 μg/μl) at 37° C. for one hour before hybridization. The 23 bp human satellite-2 repeat sequence, [NT], was used to prepare the […] different content and sequence order of LNA modifications (Table 19). All […] labeled in the 5' end with either Cy3 or biotin. Biotin amidite was purchased from Applied Biosystems and Cy3 amidite was purchased from Amersham Bioscience. […] FISH was carried out as described by […], Guven […], Turner Z. (1998) Not para-, not peri-, but centric inversion of chromosome 12. […] (1); with the following modifications including: […] In addition the effect of denaturation was also tested. Two alternative hybridization mixtures were used: 50% formamide/2×SSC (pH 7.0)/10% dextran sulphate or 2×SSC (pH 7.0)/10% dextran sulphate. Hybridization times included 30 min, 1 hr, 2 hrs, 3 hrs and overnight. Hybridization temperatures included: 37° C., 55° C., 60° C. and 72° C. Post washing was either as for standard FISH (1), or with 50% formamide/2×SSC at 60° C., or without formamide. Hybridization signals with biotin labeled LNA substituted oligonucleotide probes were visualized indirectly using two layers of fluorescein-labeled avidin (Vector Labs) linked by a biotinylated anti-avidin molecule, which amplified the signal 8-64 times. The hybridization of Cy3 labeled molecules however, was visualized directly after a short washing procedure. […] The whole procedure was carried out in the dark. The signals were visualized using a Leica DMRB epifluorescence microscope equipped with a SenSys charge-coupled device camera (Photometrics, Tucson, Ariz.), and IPLAB Spectrum Quips FISH software (Applied Imaging international Ltd, Newcastle, UK) within two days after hybridization.

The test system of data set [3] is DNA oligonucleotides (HNFas128A-2, Gluc53as-A). Nature of the data set: Mismatch discrimination of chimeric LNA-DNA 12-mers containing LNA-A or LNA-D. The class given is binding.
The subject of data set [4] is splice variant #1 and #2 transcripts spiked into C. elegans total RNA. Nature of the data set: Splice variant ratio detection with merged LNA block capture probes (Example 9). The class given is binding. Conditions: signal ratio KU007/KU008, Cy5, normalized.

l = locked nucleic acid (LNA); [5mC] = 5-methylcytosine; d = 2'-deoxy (DNA)

As usually defined, the ΔTm is the shift of the melting midpoint relative to a reference.

With “5′-TGCTGGTG-3′ [DNA 8-mer, reference compound]”, in data set [1], the ΔTm was determined as 10 °C; the “Tm of LNA:DNA Duplexes, Perfect match” value is 35 °C; the “Tm of LNA:DNA Duplexes, Single mismatch” value is 25 °C.
In the case of 5′-TGCTGGTG-3′ [LNA 8-mer], in data set [1], the ΔTm is 26 °C; the “Tm of LNA:DNA Duplexes, Perfect match” value came to 71 °C; the “Tm of LNA:DNA Duplexes, Single mismatch” value turned out to be 45 °C.
Turning to `COc1cc(NC(C)CCCN)c2ncccc2c1` (stereo not drawn) [Primaquine, primaquine], in data set [2], the “Log2 transformed fold of change, ABC_F57C12.4” value was −1.11; the “Log2 transformed fold of change, CYP_F14F7.2” value is −1.24; the “Log2 transformed fold of change, DC_W05G11.3” value was determined as 1.16; the “Log2 transformed fold of change, ER_26S” value was −1.09. In data set [2], the “Log2 transformed fold of change, PPGB_F13D12.6” value is reported as 1.08 and the “Log2 transformed fold of change, RPL_K11H12.2” value is reported as 1.15.
As for `O=c1cc(-c2ccccc2)oc2ccc3ccccc3c12` [beta-naphthoflavone, β-naphthoflavone], in data set [2], the “Log2 transformed fold of change, ABC_C34G6.4” value worked out at 1.01; the “Log2 transformed fold of change, CYP_C03G6.15” value stood at 2.35; the “Log2 transformed fold of change, CYP_C06B3.3” value worked out at 2.47; the “Log2 transformed fold of change, CYP_C49G7.8” value is given as 2.40. In addition, in data set [2], the “Log2 transformed fold of change, CYP_F14F7.2” value was −1.03; the “Log2 transformed fold of change, CYP_K07C6.5” value is 2.68; the “Log2 transformed fold of change, CYP_K09D9.2” value turned out to be 2.14; the “Log2 transformed fold of change, ER_26S” value is recorded as −1.01. For the same molecule, in data set [2], the “Log2 transformed fold of change, HSP_C47E8.5” value is recorded as 1.17; the “Log2 transformed fold of change, HSP_F26D10.3” value is given as 1.05; the “Log2 transformed fold of change, HSP_F43D9.4” value amounted to 1.27; the “Log2 transformed fold of change, NAP_D2096.8” value is listed as 1.14. For the same molecule, in data set [2], the “Log2 transformed fold of change, PPGB_F13D12.6” value came to 1.21; the “Log2 transformed fold of change, RAD_Y116A8C.133” value is 1.13; the “Log2 transformed fold of change, RPL_K11H12.2” value is recorded as 1.42; the “Log2 transformed fold of change, Ubi_F25B5.4” value came out at 1.37.
With “ATtCcAtTcGaTtCcAtTcGaTc (as printed in the source, key not given here) [LNA-2]”, in the data set on human satellite-2 repeat, the “FISH signals on chromosomes” value was “signals on chromosomes 1, 16, 9 and 15”; the “FISH signals without a denaturation step” value is “giving the best signals”.
With “aTTCcattcgATTccattcGATc (ATTCCATTCGATTCCATTCGATC; sugars from the 5' end dlllddddddlllddddddllld, backbone and methylation of C not given here; 5' end labelled with Cy3 or biotin) [LNA Blocks]”, the “FISH signals on chromosomes” value with human satellite-2 repeat is listed as “smaller signals on chromosome 1”.
As to “aTtcCatTcgAtTccAttCgaTc (ATTCCATTCGATTCCATTCGATC; sugars from the 5' end dlddlddlddldlddlddlddld, backbone and methylation of C not given here; 5' end labelled with Cy3 or biotin) [LNA-3]”, the “FISH signals on chromosomes” value with human satellite-2 repeat is “bright signals on chromosomes 1, 16 and 9”.
The same measure, in the same setting: with “aTtccatTcgaTtccAttcgaTc (ATTCCATTCGATTCCATTCGATC; sugars from the 5' end dldddddldddldddldddddld, backbone and methylation of C not given here; 5' end labelled with Cy3 or biotin) [Dispersed LNA]” the entry was “signals on chromosomes 1 and 16 only”.
“attccattcgattccattcgatc (ATTCCATTCGATTCCATTCGATC; chemistry not given here) [DNA oligo, reference compound]”: in the data set with human satellite-2 repeat, the “FISH signals on chromosomes” value was “no signals on any of the chromosomes” and the “FISH signals without a denaturation step” value is “no signals were obtained”.
On to “cAmCtgGAmCtctt (CACTGGACTCTT; chemistry not given here)”, for which the “ΔTm between singly mismatched and perfect duplexes” value in data set [3] (Gluc53as-A) was −10.9 °C. In data set [3] (Gluc53as-A, duplexes 2 μM), the “Tm with aagaggccagtg (singly mismatched)” value was 50.6 °C and the “Tm with aagagtccagtg (perfect)” value worked out at 61.5 °C.
As to “caacactgcccagaggttcaatcGATGTgtgataggatcagtgttcaggg (CAACACTGCCCAGAGGTTCAATCGATGTGTGATAGGATCAGTGTTCAGGG; sugars from the 5' end d23 l5 d22, backbone not given here; further chemistry not fully specified) [gene78.m01INS4_50_block]”, the “Observed ratio (log2) with merged LNA block capture probes” value in data set [4] was −2.39.
For the molecule “caacactgcccagaggttcaatcGATmCmCgatgatcctaatgaaggcgccc (CAACACTGCCCAGAGGTTCAATCGATCCGATGATCCTAATGAAGGCGCCC; sugars from the 5' end d23 l5 d22, [5mC] at 27, 28, backbone not given here; further chemistry not fully specified) [gene78.m01INS3_50_block]”, the “Observed ratio (log2) with merged LNA block capture probes” value in data set [4] worked out at 2.93.
Still for that read-out and setting: with “gaaggcgaaggagactgctAATATcgataaatatgtgaaggaaatgcctg (as printed in the source, key not given here) [gene78.mINS403_50_block]” the figure was −0.86; with “gene78.m0103: merged probe corresponding to the exon 01-exon 03 border (DNA CACAACACTGCCCAGAGGTTCAATCGATAAATATGTGAAGGAAATGCCTG; listed as DNA, chemistry not fully specified)”, −0.24.
On to “tGtggGATGttg (TGTGGGATGTTG; chemistry not given here)”, for which, in data set [3] (HNFas128A-2), the “ΔTm between singly mismatched and perfect duplexes” value was −15.1 °C. In data set [3] (HNFas128A-2, duplexes 2 μM), the “Tm with caacaacccaca (singly mismatched)” value turned out to be 45.9 °C and the “Tm with caacatcccaca (perfect)” value was determined as 61.0 °C.
